Experimental data: PubChem BioAssay AID588387 (NMMLSC, 2011)
Calls of active or inactive are those of the source.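 The calls were made as follows: active = half-maximal binding-loss concentration at or below 10 µM, response change across doses of 30% or more, acceptable curve fit; inactive = the rest.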

Biological target: GTPase HRas (Homo sapiens) (UniProt P01112)
Assay: activated H-Ras mutant GTP-binding inhibitors, SAR follow-up, biochemical, multiplex bead flow cytometry, round 1 (AID 588387)
Details: GST-H-Ras beads, Bodipy-FL-GTP binding; for % response (remaining GTP binding): at 100 µM (top of the series)

GTPase HRas (Homo sapiens), sequence (P01112 whole entry, looked up): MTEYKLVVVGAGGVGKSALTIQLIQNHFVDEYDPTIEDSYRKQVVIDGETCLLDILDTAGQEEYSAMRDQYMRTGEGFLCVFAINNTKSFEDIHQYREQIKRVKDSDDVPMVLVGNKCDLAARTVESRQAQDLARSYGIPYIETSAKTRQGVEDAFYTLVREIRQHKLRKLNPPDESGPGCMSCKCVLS

Row | % response (remaining GTP binding) | EC50 | SMILES
1 | inactive |  | CC(C)(C)OC(=O)c1c(NC(=S)NC(=O)c2ccccc2)sc2c1CCOC2
2 |  | 33 nM | COc1cccc(C(=O)NC(=S)Nc2sc3c(c2C(=O)O)CC(C)(C)OC3)c1
3 |  | 51 nM | CC1(C)Cc2c(sc(NC(=S)NC(=O)c3ccccc3F)c2C(=O)O)CO1
4 | inactive |  | CCOC(=O)c1c(N)sc2ccccc12
5 |  | 47 nM | CC1Cc2c(sc(NC(=S)NC(=O)c3ccccc3)c2C(=O)O)CO1 (configuration not stated)
6 | inactive |  | Cc1ccc(Nc2nc3sc4c(c3c(=O)o2)CCN(C)C4)cc1
7 |  | 76 nM | CC1(C)CCc2sc(NC(=S)NC(=O)c3ccccc3)c(C(=O)O)c2C1
8 | inactive |  | CN1CCc2c(sc3nc(Nc4ccc(F)cc4)oc(=O)c23)C1
9 | inactive |  | COC(=O)c1c(N)sc2c1CC(C)(C)OC2
10 |  | 260 nM | CC1(C)Cc2c(sc(NC(=S)NC(=O)c3ccc(Br)cc3)c2C(=O)O)CO1
11 |  | 151 nM | CC1(C)Cc2c(sc(NC(=O)NC(=O)c3ccccc3)c2C(=O)O)CO1
12 | inactive |  | Cc1ccc(NC(=O)Nc2sc3c(c2C(=O)O)CCN(C)C3)cc1
13 | inactive |  | CCOC(=O)c1c(NC(=O)Nc2ccc(C)cc2)sc2c1CCN(C)C2
14 | inactive |  | CN1CCc2c(sc(NC(=O)Nc3ccc(F)cc3)c2C(=O)O)C1
15 | inactive |  | CC1(C)Cc2c(sc(NC(=S)NC(=O)c3cccc(Br)c3)c2C(=O)O)CO1
16 | inactive |  | CCOC(=O)c1c(NC(=S)Nc2ccccc2)sc2c1CC(C)(C)OC2
17 | inactive |  | COC(=O)c1c(NC(=S)NC(=O)c2ccccc2)sc2c1CC(C)(C)OC2
18 |  | 145 nM | COc1ccc(C(=O)NC(=S)Nc2sc3c(c2C(=O)O)CC(C)(C)OC3)cc1
19 | inactive |  | CC1(C)Cc2c(sc(NC(=O)Cc3ccccc3)c2C(=O)O)CO1
20 |  | 82 nM | CC1(C)Cc2c(sc(NC(=S)NC(=O)c3ccccc3)c2C(=O)O)CO1
21 |  | 32 nM | O=C(NC(=S)Nc1sc2c(c1C(=O)O)CCOC2)c1ccccc1
22 | inactive |  | CC1(C)Cc2c(sc(NC(=S)Nc3ccccc3)c2C(=O)O)CO1
23 | inactive |  | CCOC(=O)c1c(NC(=O)NC(C)(C)C)sc2c1CCN(C)C2
24 | inactive |  | CCOC(=O)c1c(NC(=S)NC(=O)c2ccccc2)sc2ccccc12
25 | inactive |  | CCOC(=O)c1c(NC(=O)Nc2ccc(F)cc2)sc2c1CCN(C)C2
26 |  | 45 nM | CC1(C)Cc2c(sc(NC(=S)NC(=O)c3ccccc3Br)c2C(=O)O)CO1
27 |  | 278 nM | CC1(C)Cc2c(sc(NC(=S)NC(=O)c3cccc(F)c3)c2C(=O)O)CO1
